Assay results as given in patent US12435091B2, “RNA-binding protein multimerization inhibitors and methods of use thereof” (THE UAB RESEARCH FOUNDATION, priority 2020, dated 2025).
Where two headings read alike, the source gives them in different places.

Legend:
[1] = molecular target: T1, HuR (Homo sapiens, UniProt Q15717); experiment: cell-based split firefly luciferase-HuR dimerization assay
T1 construct: expressed in transfected cells; host or cells: U251 glioma cells, doxycycline-inducible constructs
Outline: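 U251 cells carrying HuR fused to N- or C-terminal split firefly luciferase halves (dimer reporter) or full-length Fluc (control); constructs induced with doxycycline 0.75 ug/ml for 48 h. Compounds at various concentrations vs vehicle for 6 h. Luciferin-driven luminescence read; mean+SD.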

[2] = brain tissue binding; format: in vitro ADME
[3] = molecular target: TRKA (NTRK1) (Homo sapiens, UniProt P04629); experiment: SelectScreen kinase profiling, ZLYTE; format: biochemical
Method: The kinase inhibitory potentials of compounds as described herein (e.g., SRI-42127 and SRI-41664) were evaluated by ThermoFisher Scientific's SelectScreen™ Kinase Profiling Service. The following kinase inhibitory assays were utilized: ZLYTE (Madison, WI) for NTRK1, PIM1, and cMET kinases; LanthaScreen Binding (Madison, WI) for AAK1 kinase; and Adapta (Madison, WI) for IRAK1 kinase.

[4] = system: primary human astrocytes; experiment: cleaved caspase-3 immunostaining in primary human astrocytes; format: cell-based; details: up to 15 uM
Method: At the end of experiments, neurons and astrocytes were rinsed briefly with PBS and fixed by using 4% paraformaldehyde, pH 7.4 for 13 minutes at room temperature. Triton X-100 (0.3%) in PBST buffer (i.e., PBS with 0.1% Tween 20) was used for cell permeabilization for 30 minutes at room temperature. Cells were rinsed with PBST buffer 3 times for 10 minutes after fixation. Blocking buffer (3% BSA, 22.52 mg/ml glycine in PBST) was used to block unspecific antibody binding for 30 minutes at room temperature. Primary cleaved caspase 3 antibody (Cell Signaling Technology; Danvers, MA) at 1:200 dilution in PBST buffer with 1% BSA was utilized overnight at 4° C. for cleaved caspase 3 staining. The next day, cells were rinsed four times for 10 minutes with PBST buffer and then were incubated with secondary antibody (Alexa Fluor 594, goat anti-rabbit IgG, Invitrogen (Carlsbad, CA), 1:2000/5000 dilution) in PBST buffer with 1% BSA for 1 hour at room temperature in the dark. Next, cells were rinsed with PBST buffer 4 times for 10 minutes in the dark. Cell nucleus were stained with DAPI (4′,6-diamidino-2-phenylindole). Cell images were obtained with EVOS Fl (Life Technologies; Eugene, OR) imaging system.
The cellular metabolism declined by about 44% after treatment with SRI-42127, 25 uM for 48 hours as shown by FIG. 5E. […]

[5] = system: U251 cell line; experiment: attached cell colony formation assay; format: cell-based; details: 3 uM
Method: (§1) The soft agar colony formation assay was performed by using 0.9% and 0.45% agarose for the bottom and the top layers, respectively; cells were incorporated in the top layer. Seaplaque low-melting temperature agarose was purchased from Lonza (Rockland, ME). Five hundred cells per well were utilized in both, the soft agar and the attached colony formation assays, which were performed in 6 well plates; cells were treated with vehicle as the control or with the desired drugs, which were administered twice per week for three weeks. The Crystal violet solution (0.1%) was utilized for colony staining in both assays. The colonies were counted after three weeks of treatment; the plate images were obtained by using Amersham Imager-600 reader (Piscataway, NJ).
(§2) Graphs in FIG. 8D illustrate the average numbers of colonies formed by established U251 and PDGx XD456 cell lines in the attached cell colony formation assay and in the soft agar colony formation assay, which represents anchorage independent cell growth.

[6] = system: XD456 cell line; experiment: attached cell colony formation assay; format: cell-based; details: 3 uM
Method: as §1, §2

[7] = system: U251 cell line; experiment: soft agar colony formation assay; format: cell-based; details: 3 uM
Method: as §1, §2

[8] = system: XD456 cell line; experiment: soft agar colony formation assay; format: cell-based; details: 3 uM
Method: as §1, §2

[9] = system: HuR cytoplasmic translocation in primary microglial cells; experiment: Imagestream single cell flow cytometry of HuR location in LPS-activated microglia; format: cell-based, mouse; details: 1 μM
Method: Cultured primary microglial cells isolated from neonatal mouse brain were treated with LPS to achieve activation. Cells were then treated with varying doses of SRI-42127 or vehicle. Imagestream single cell flow cytometry was used to track the location of HuR within microglial cells as depicted in FIG. 11, Panel A. DAPI was used as a flow marker for nuclear localization. For each cell, the percentage of HuR immunofluorescence that colocalized with the nuclear compartment versus the cytoplasmic compartment was quantified.
In the unstimulated state (DMSO), the characteristic nuclear predominance of HuR was observed as reflected by a low percentage of cells with high HuR in the cytoplasm. With LPS stimulation, there was an ˜8-fold increase in the percent of cells with high levels of HuR in the cytoplasm (˜60%). With SRI-42127 treatment, there was a significant dose-dependent decrease in cells with high cytoplasmic HuR. At 1 μM of SRI-42127, the percent of cells with high HuR was similar to resting (unactivated) microglia (˜10%).

[10] = system: microglia; experiment: PrestoBlue cell viability assay in microglia; format: cell-based, mouse; details: tested dose range (up to 1 μM)
[11] = system: microglial lysates (iNOS, HuR, KSRP, Arginase 1, YM1); experiment: Western blot analysis of microglial lysates; format: cell-based, mouse; details: 1.0 μM

T1 sequence (Q15717 whole entry): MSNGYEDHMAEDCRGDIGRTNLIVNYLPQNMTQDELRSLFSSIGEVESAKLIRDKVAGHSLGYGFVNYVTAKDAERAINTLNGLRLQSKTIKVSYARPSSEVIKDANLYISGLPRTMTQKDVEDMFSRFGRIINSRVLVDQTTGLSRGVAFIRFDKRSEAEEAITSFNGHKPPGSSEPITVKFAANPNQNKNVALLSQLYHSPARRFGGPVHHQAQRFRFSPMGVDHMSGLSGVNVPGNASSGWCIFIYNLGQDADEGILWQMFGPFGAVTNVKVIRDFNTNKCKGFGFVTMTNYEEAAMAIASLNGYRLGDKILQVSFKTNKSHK
Chain of TRKA (NTRK1) (P04629 33-796): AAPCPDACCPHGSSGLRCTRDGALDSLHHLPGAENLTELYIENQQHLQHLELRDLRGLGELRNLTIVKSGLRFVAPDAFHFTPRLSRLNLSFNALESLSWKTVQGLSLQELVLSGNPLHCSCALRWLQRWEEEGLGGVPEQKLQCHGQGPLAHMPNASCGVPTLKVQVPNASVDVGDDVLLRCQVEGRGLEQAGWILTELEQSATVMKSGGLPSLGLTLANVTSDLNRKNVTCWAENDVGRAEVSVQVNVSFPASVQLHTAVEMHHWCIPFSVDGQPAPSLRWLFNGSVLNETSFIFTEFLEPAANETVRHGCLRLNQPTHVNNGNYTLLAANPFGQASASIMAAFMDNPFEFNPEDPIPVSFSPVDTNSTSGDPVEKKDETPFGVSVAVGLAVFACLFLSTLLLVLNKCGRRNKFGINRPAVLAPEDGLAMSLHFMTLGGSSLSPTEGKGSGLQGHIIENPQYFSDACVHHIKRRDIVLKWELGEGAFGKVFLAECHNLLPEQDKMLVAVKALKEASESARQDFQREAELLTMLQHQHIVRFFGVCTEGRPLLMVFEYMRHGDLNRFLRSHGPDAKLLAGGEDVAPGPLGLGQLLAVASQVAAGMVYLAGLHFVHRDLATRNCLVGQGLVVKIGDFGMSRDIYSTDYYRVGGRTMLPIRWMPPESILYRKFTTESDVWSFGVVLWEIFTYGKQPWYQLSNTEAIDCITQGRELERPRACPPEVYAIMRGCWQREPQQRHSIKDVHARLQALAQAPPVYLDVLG

For `CN(c1ccc2ncc(-c3ccc4cn[nH]c4c3)n2n1)C1CCOCC1` [Compound 19], the “HuR inhibition activity (in words)” value [1] was “active”, the “HuR N/C Imax % Inh” value ([1]; Concn 50 uM) was 90% and the IC50 ([1]; U251 cells co-expressing HuR-Nluc and HuR-Cluc, 6 hours of treatment, read-out: HuR IC50) was 1200 ± 200 nM. For the same molecule, the IC50 ([1]; U251 with dox-inducible HuR-dimerization reporters, after increase in HuR dimerization by two fold, 6 hours, read-out: IC50 for inhibition of HuR dimerization) was 1900 ± 100 nM, the IC50 ([1]; U251 with dox-inducible HuR-dimerization reporters, before increase in HuR dimerization, 6 hours, read-out: IC50 for inhibition of HuR dimerization) was 1200 ± 100 nM and the “maximum inhibition of HuR dimerization” value ([1]; after 6 hours of cell treatment) was 90±1%. The IC50 ([1]; split luciferase HuR dimerization assay, compounds administered for 6 hours, read-out: HuR IC50) was 1500 nM, the brain tissue binding [2] was 99.13% and the recovery ([2]; brain tissue, relatively low due to instability or high nonspecific binding) was 69.6%. The IC50 [3] was 117 nM, the “cleaved caspase-3 activation” value [4] was “significant alterations in cleaved caspase-3 activation were not observed” and the number of colonies [5] was 49+28. For the same molecule, the number of colonies [6] was 34+12, the number of colonies [7] was 90+70 and the number of colonies [8] was 39+6. The “percent of cells with high cytoplasmic HuR” value [9] was about 10%, the toxicity to microglia [10] was “did not cause toxicity” and the “suppression of iNOS protein” value [11] was 4.2 fold.
